Reference: patent publication US20250019387A1 (Frontier Medicines Corporation, priority 0001, published 2025)

These molecules were tested against KRAS G12C and cRAF (Ras-binding domain) interaction (Homo sapiens (Human), UniProt P01116, C118S/C51S/C80L/G12C) (assay: Inhibition of KRAS G12C and cRAF binding (AlphaScreen)). Conditions: GMPPNP-loaded KRAS G12C, 19-20 hours incubation with compound; read-out: IC50 (Inhibition of KRAS G12C and cRAF Binding).
Method in brief: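 IC50 values come from 4-parameter nonlinear regression of AlphaScreen signal (680 nm excitation, 570 nm emission). Compound plates sat 19-20 h at room temperature before RBD and donor/acceptor beads were added in Hepes pH 7.4 buffer with 150 mM NaCl, 5 mM MgCl2, 2% DMSO for 60-90 min; biotin-AviTag-GST replaced RBD to flag assay-technology interferers.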

Chain of KRAS G12C and cRAF (Ras-binding domain) interaction (P01116 other isoform, or with tags, fused parts or gaps G12C/C51S/C80L/C118S): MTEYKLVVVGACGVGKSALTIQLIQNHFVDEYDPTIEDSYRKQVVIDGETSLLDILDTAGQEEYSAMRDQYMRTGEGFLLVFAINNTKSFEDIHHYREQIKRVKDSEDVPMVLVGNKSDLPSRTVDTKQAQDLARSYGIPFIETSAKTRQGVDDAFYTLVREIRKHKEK

| IC50 [µM] | Structure (SMILES) |
| --- | --- |
| 0.01 to 0.1 | COC(=O)/C=C/C(=O)NCCN(C)c1nc(OCC23CCCN2CCC3)nc2c1CCN(c1cccc3cccc(Cl)c13)C2 [Example 13, Methyl(E)-4-((2-((7-(8-chloronaphthalen-1-yl)-2-((tetrahydro-1H-pyrrolizin-7a(5H)-yl)methoxy)-5,6,7,8-tetrahydropyrido[3,4-d]pyrimidin-4-yl)(methyl)amino)ethyl)amino)-4-oxobut-2-enoate] |
| 0.1 to 0.5 | CN(c1nc(OCC23CCCN2CCC3)nc2c1CCN(c1cccc3cccc(Cl)c13)C2)[C@@H]1CCN(C#N)C1 [Example 39, (R)-3-((7-(8-chloronaphthalen-1-yl)-2-((tetrahydro-1H-pyrrolizin-7a(5H)-yl)methoxy)-5,6,7,8-tetrahydropyrido[3,4-d]pyrimidin-4-yl)(methyl)amino)pyrrolidine-1-carbonitrile] |
| < 0.01 | COC(=O)/C=C/C(=O)N1CC(CN(C)c2nc(OCC34CCCN3CCC4)nc3c(F)c(-c4cccc5cccc(Cl)c45)ncc23)C1 [Example 25, methyl(E)-4-(3-(((7-(8-chloronaphthalen-1-yl)-8-fluoro-2-((tetrahydro-1H-pyrrolizin-7a(5H)-yl)methoxy)pyrido[4,3-d]pyrimidin-4-yl)(methyl)amino)methyl)azetidin-1-yl)-4-oxobut-2-enoate] |
| 0.01 to 0.1 | COC(=O)/C=C/C(=O)N1CC[C@@H](N(C)c2nc(OC[C@@H]3CCCN3C)nc3c2CCN(c2cccc4ccc(F)c(Cl)c24)C3)C1 [Example 3, methyl(E)-4-((R)-3-((7-(8-chloro-7-fluoronaphthalen-1-yl)-2-(((S)-1-methylpyrrolidin-2-yl)methoxy)-5,6,7,8-tetrahydropyrido[3,4-d]pyrimidin-4-yl)(methyl)amino)pyrrolidin-1-yl)-4-oxobut-2-enoate] |
| 0.01 to 0.1 | C=CC(=O)N1CC(CN(C)c2nc(OC[C@@]34CCCN3C[C@H](F)C4)nc3c(F)c(-c4cccc5ccc(F)c(F)c45)ncc23)C1 [Example 246, 1-(3-(((7-(7,8-difluoronaphthalen-1-yl)-8-fluoro-2-(((2R,7aS)-2-fluorotetrahydro-1H-pyrrolizin-7a(5H)-yl)methoxy)pyrido[4,3-d]pyrimidin-4-yl)(methyl)amino)methyl)azetidin-1-yl)prop-2-en-1-one] |
| > 0.5 | CN(c1nc(OCC23CCCN2CCC3)nc2c(F)c(-c3cccc4cccc(Cl)c34)ncc12)[C@@H]1CCN(C(=O)/C=C/c2cn(C)cn2)C1 [Example 115, (R,E)-1-(3-((7-(8-chloronaphthalen-1-yl)-8-fluoro-2-((hexahydro-1H-pyrrolizin-7a-yl)methoxy)pyrido[4,3-d]pyrimidin-4-yl)(methyl)amino)pyrrolidin-1-yl)-3-(1-methyl-1H-imidazol-4-yl)prop-2-en-1-one] |
| 0.01 to 0.1 | Cc1nsc(/C=C/C(=O)N2CC[C@@H](N(C)c3nc(OC[C@@]45CCCN4C[C@H](F)C5)nc4c(F)c(-c5cccc6cccc(Cl)c56)ncc34)C2)n1 [Example 75, (E)-1-((R)-3-((7-(8-chloronaphthalen-1-yl)-8-fluoro-2-(((2R,7aS)-2-fluorotetrahydro-1H-pyrrolizin-7a(5H)-yl)methoxy)pyrido[4,3-d]pyrimidin-4-yl)(methyl)amino)pyrrolidin-1-yl)-3-(3-methyl-1,2,4-thiadiazol-5-yl)prop-2-en-1-one] |
| 0.1 to 0.5 | C=CC(=O)N1CC[C@@H](N(C)c2nc(OC[C@@]34CCCN3C[C@H](F)C4)nc3c(F)c(-c4cccc5cccc(C#N)c45)ncc23)C1 [Example 297, 8-(4-(((R)-1-acryloylpyrrolidin-3-yl)(methyl)amino)-8-fluoro-2-(((2R,7aS)-2-fluorotetrahydro-1H-pyrrolizin-7a(5H)-yl)methoxy)pyrido[4,3-d]pyrimidin-7-yl)-1-naphthonitrile] |
| < 0.01 | CN(c1nc(OCC23CCCN2CCC3)nc2c(F)c(-c3cccc4cccc(Cl)c34)ncc12)[C@@H]1CCN(C(=O)/C=C/c2nc(C3(C)CC3)no2)C1 [Example 101, (R,E)-1-(3-((7-(8-chloronaphthalen-1-yl)-8-fluoro-2-((hexahydro-1H-pyrrolizin-7a-yl)methoxy)pyrido[4,3-d]pyrimidin-4-yl)(methyl)amino)pyrrolidin-1-yl)-3-(3-(1-methylcyclopropyl)-1,2,4-oxadiazol-5-yl)prop-2-en-1-one] |
| 0.01 to 0.1 | CCc1c(F)ccc2cccc(-c3ncc4c(N(C)[C@@H]5CCN(C(=O)/C=C/[C@H]6CCN6C)C5)nc(OC[C@@]56CCCN5C[C@H](F)C6)nc4c3F)c12 [Example 196, (E)-1-((R)-3-((7-(8-ethyl-7-fluoronaphthalen-1-yl)-8-fluoro-2-(((2R,7aS)-2-fluorotetrahydro-1H-pyrrolizin-7a(5H)-yl)methoxy)pyrido[4,3-d]pyrimidin-4-yl)(methyl)amino)pyrrolidin-1-yl)-3-((R)-1-methylazetidin-2-yl)prop-2-en-1-one] |
| 0.1 to 0.5 | C=CC(=O)N1CC[C@@H](N(C)c2nc(OC[C@@]34CCCN3C[C@H](F)C4)nc3c(F)c(-c4cccc5cc(F)c(F)cc45)ncc23)C1 [Example 266, 1-((R)-3-((7-(6,7-difluoronaphthalen-1-yl)-8-fluoro-2-(((2R,7aS)-2-fluorotetrahydro-1H-pyrrolizin-7a(5H)-yl)methoxy)pyrido[4,3-d]pyrimidin-4-yl)(methyl)amino)pyrrolidin-1-yl)prop-2-en-1-one] |

| Structure (SMILES) | IC50 [µM] |
| --- | --- |
| CN(CC1CN(C(=O)/C=C/[C@@H]2CCN2C)C1)c1nc(OC[C@@]23CCCN2C[C@H](F)C3)nc2c(F)c(-c3cccc4ccc(F)c(Cl)c34)ncc12 [Example 220, (E)-1-(3-(((7-(8-chloro-7-fluoronaphthalen-1-yl)-8-fluoro-2-(((2R,7aS)-2-fluorotetrahydro-1H-pyrrolizin-7a(5H)-yl)methoxy)pyrido[4,3-d]pyrimidin-4-yl)(methyl)amino)methyl)azetidin-1-yl)-3-((S)-1-methylazetidin-2-yl)prop-2-en-1-one] | < 0.01 |
| C#Cc1c(F)ccc2cccc(-c3ncc4c(N(C)[C@@H]5CCN(C(=O)/C=C/[C@H]6CCN6C)C5)nc(OC[C@@]56CCCN5C[C@H](F)C6)nc4c3F)c12 [Example 200, (E)-1-((R)-3-((7-(8-ethynyl-7-fluoronaphthalen-1-yl)-8-fluoro-2-(((2R,7aS)-2-fluorohexahydro-1H-pyrrolizin-7a-yl)methoxy)pyrido[4,3-d]pyrimidin-4-yl)(methyl)amino)pyrrolidin-1-yl)-3-((R)-1-methylazetidin-2-yl)prop-2-en-1-one] | < 0.01 |
| COCCN(C)C/C=C/C(=O)N1CC[C@@H](N(C)c2nc(OC[C@@]34CCCN3C[C@H](F)C4)nc3c(F)c(-c4cccc5cccc(Cl)c45)ncc23)C1 [Example 235, (E)-1-((R)-3-((7-(8-chloronaphthalen-1-yl)-8-fluoro-2-(((2R,7aS)-2-fluorohexahydro-1H-pyrrolizin-7a-yl)methoxy)pyrido[4,3-d]pyrimidin-4-yl)(methyl)amino)pyrrolidin-1-yl)-4-((2-methoxyethyl)(methyl)amino)but-2-en-1-one] | < 0.01 |

Same assay, conditions: additional exemplary compounds; KRAS G12C and cRAF binding; read-out: RAF1 RBD IC50

| IC50 [µM] | Structure (SMILES) |
| --- | --- |
| 0.01 to 0.1 | C=CC(=O)N1C[C@H](F)[C@@H](N(C)c2nc(OC[C@@]34CCCN3C[C@H](F)C4)nc3c(F)c(-c4cccc5cccc(Cl)c45)ncc23)C1 [drawing 2208] |
| > 0.5 | C=CC(=O)N1CC(CN(C)c2nc(OC[C@@]34CCCN3C[C@H](O)C4)nc3c(F)c(-c4cccc5cccc(Cl)c45)ncc23)C1 |
| 0.01 to 0.1 | CCN(C/C=C/S(=O)(=O)CCN(C)c1nc(OCC23CCCN2CCC3)nc2c(F)c(-c3cccc4cccc(Cl)c34)ncc12)CCOC |
| > 0.5 | C=CC(=O)N1C[C@H](Nc2nc(OC[C@@]34CCCN3C[C@H](F)C4)nc3c(F)c(-c4cccc5cccc(Cl)c45)ncc23)[C@@H](C)C1 |
| > 0.5 | CN(c1nc(OC[C@@]23CCCN2C[C@H](F)C3)nc2c(F)c(-c3cccc4cccc(Cl)c34)ncc12)[C@@H]1CCN(C(=O)/C=C/c2ncc(F)cn2)C1 |
| 0.1 to 0.5 | C=CC(=O)N1CC[C@@H](N(C)c2nc(OC[C@@]34CCCN3C[C@H](F)C4)nc3c2CCN(c2cccc4cccc(Cl)c24)C3)C1 |
| > 0.5 | C=CC(=O)N1C[C@H](N(C)c2nc(OCC34CCCN3CCC4)nc3c2CCN(c2cccc4cccc(Cl)c24)C3)C[C@H]1CC#N |
| > 0.5 | C=CC(=O)CCNc1nc(OC[C@@H]2CCCN2C)nc2c1CCN(c1cccc3ccccc13)C2 |
| > 0.5 | C=CC(=O)N(C)C[C@H]1CCN1c1nc(OC[C@@]23CCCN2C[C@H](F)C3)nc2c(F)c(-c3cccc4cccc(Cl)c34)ncc12 |
| > 0.5 | O=C(/C=C/CN1CCOCC1)N1C[C@H]2C[C@@H]1CN2c1nc(OC[C@@]23CCCN2C[C@H](F)C3)nc2c(F)c(-c3cccc4cccc(Cl)c34)ncc12 |
| 0.01 to 0.1 | CN(C)C/C=C/C(=O)N1CC(CN(C)c2nc(OCC34CCCN3CCC4)nc3c(F)c(-c4cccc5ccc(F)c(Cl)c45)ncc23)C1 |
| > 0.5 | C=CC(=O)N1C[C@@H](N(C)c2nc(OC[C@@H]3CCCN3C)nc3c(F)c(-c4cccc5cccc(Cl)c45)ncc23)C[C@@H]1CC#N |
| 0.1 to 0.5 | C=CC(=O)CCCCN(C)c1nc(OC[C@@H]2CCCN2C)nc2c1CCN(c1cccc3ccccc13)C2 |
| 0.1 to 0.5 | C=CC(=O)N1CC(CN(C)c2nc(OC[C@]34CCCN3C[C@@H](F)C4)nc3c(F)c(-c4cccc5cccc(Cl)c45)ncc23)C1 |

| Structure (SMILES) | IC50 [µM] |
| --- | --- |
| Cc1nccc(/C=C/C(=O)N2C3CC2CN(c2nc(OC[C@@]45CCCN4C[C@H](F)C5)nc4c(F)c(-c5cccc6cccc(Cl)c56)ncc24)C3)n1 | > 0.5 |
| CC(C)c1noc(/C=C/C(=O)N2CC3CC(C2)N3c2nc(OC[C@@]34CCCN3C[C@H](F)C4)nc3c(F)c(-c4cccc5cccc(Cl)c45)ncc23)n1 | > 0.5 |
